Laboratory results reported in PubChem BioAssay AID308 (DTP/NCI, 2004).
Toxic doses and inconclusive results are not listed.

Test system: BDF1 mice, L1210 6-MP/6-TG resistant leukemia ip, survival T/C
Assay: NCI In Vivo Anticancer Drug Screen. Data for tumor model L1210 Leukemia resistant to 6-MP and 6-Thioguanine; NSC 755, NSC 752 (intraperitoneal) in B6D2F1 (BDF1) mice
Conditions: endpoint: mean survival time, higher = longer survival
Procedure: The antitumor activity of compounds was measured in mice bearing transplantable tumors. Survival or tumor size were measured and the results are expressed as the measurement made in the treated group (T) divided by the measurement made in the vehicle treated control group (C). The tumor model used in this assay is L1210 Leukemia resistant to 6-MP and 6-Thioguanine; NSC 755, NSC 752 (intraperitoneal) in B6D2F1 (BDF1) mice

[1] = dose: 37.5 mg/kg/injection, schedule: Q01DX Z (sc), vehicle: steriod suspending solution
[2] = dose: 100.0 mg/kg/injection, schedule: Q01DX Z (sc), vehicle: steriod suspending solution

For `N[C@@H](Cc1ccc(N(CCCl)CCCl)cc1)C(=O)O`, which T/C (dose: 4.0 mg/kg/injection, schedule: Q01DX Z (ip), vehicle: carboxymethylcellulose (CMC)) is on record?
The T/C was 107 % of control.

What about the T/C (dose: 6.0 mg/kg/injection, schedule: Q01DX Z (ip), vehicle: carboxymethylcellulose (CMC)) of the same molecule?
Its T/C is 122 % of control.

What about the T/C (dose: 8.0 mg/kg/injection, schedule: Q01DX Z (ip), vehicle: carboxymethylcellulose (CMC)) of the same molecule?
Its T/C is 119 % of control.

And the T/C (dose: 12.0 mg/kg/injection, schedule: Q01DX Z (ip), vehicle: carboxymethylcellulose (CMC))?
Its T/C is 122 % of control.

Which results are given for `Nc1nc(=S)c2ncn(C3OC(CO)CC3O)c2[nH]1` (stereo not given)?
T/C (dose: 1.5 mg/kg/injection, schedule: Q01DX009 (ip), vehicle: other): 99 % of control; T/C (dose: 3.0 mg/kg/injection, schedule: Q01DX009 (ip), vehicle: other): 99 % of control; T/C (dose: 6.0 mg/kg/injection, schedule: Q01DX009 (ip), vehicle: other): 107 % of control; T/C (dose: 12.5 mg/kg/injection, schedule: Q01DX015 (ip), vehicle: other): 87 % of control

Which T/C (dose: 278.0 mg/kg/injection, schedule: Q01DX009 (ip), vehicle: saline with Tween-80) does the source give for `O=c1[nH]cnc2n[nH]nc12` here?
The T/C was 99 % of control.

And the T/C (dose: 423.0 mg/kg/injection, schedule: Q01DX009 (ip), vehicle: Klucel (hydroxypropylcellulose) (HPC))?
Its T/C is 96 % of control.

And the T/C (dose: 423.0 mg/kg/injection, schedule: Q01DX009 (ip), vehicle: saline with Tween-80)?
The T/C was 98 % of control.

What about the T/C (dose: 632.0 mg/kg/injection, schedule: Q01DX009 (ip), vehicle: Klucel (hydroxypropylcellulose) (HPC)) of the same molecule?
The T/C was 100 % of control.

And the T/C (dose: 632.0 mg/kg/injection, schedule: Q01DX009 (ip), vehicle: saline with Tween-80)?
The T/C was 98 % of control.

And the T/C (dose: 948.0 mg/kg/injection, schedule: Q01DX009 (ip), vehicle: saline with Tween-80)?
The T/C was 94 % of control.

What does the source list for `CC(=O)O[C@]1(C(C)=O)CC[C@H]2[C@@H]3C[C@H](C)C4=CC(=O)C=C[C@]4(C)[C@@]3(F)[C@@H](O)C[C@@]21C`?
T/C [1]: 101 % of control; T/C [2]: 89 % of control

Which results are given for `CC/C(=C(/CC)c1ccc(O)cc1)c1ccc(O)cc1`?
T/C [1]: 90 % of control; T/C (dose: 50.0 mg/kg/injection, schedule: Q01DX Z (sc), vehicle: steriod suspending solution): 95 % of control; T/C (dose: 75.0 mg/kg/injection, schedule: Q01DX Z (sc), vehicle: steriod suspending solution): 94 % of control; T/C [2]: 94 % of control

Which results are given for `CC(=O)Nc1ccc2nc3ccc(NC(C)=O)cc3[n+](-c3ccccc3)c2c1`?
T/C (dose: 1.25 mg/kg/injection, schedule: Q01DX Z (ip), vehicle: carboxymethylcellulose (CMC)): 95 % of control; T/C (dose: 2.5 mg/kg/injection, schedule: Q01DX Z (ip), vehicle: carboxymethylcellulose (CMC)): 103 % of control; T/C (dose: 7.5 mg/kg/injection, schedule: Q01DX Z (ip), vehicle: carboxymethylcellulose (CMC)): 154 % of control; T/C (dose: 25.0 mg/kg/injection, schedule: Q01DX Z (ip), vehicle: carboxymethylcellulose (CMC)): 202 % of control; T/C (dose: 50.0 mg/kg/injection, schedule: Q01DX Z (ip), vehicle: carboxymethylcellulose (CMC)): 176 % of control; T/C (dose: 75.0 mg/kg/injection, schedule: Q01DX Z (ip), vehicle: carboxymethylcellulose (CMC)): 180 % of control; T/C (dose: 100.0 mg/kg/injection, schedule: Q01DX Z (ip), vehicle: carboxymethylcellulose (CMC)): 121 % of control; T/C (dose: 200.0 mg/kg/injection, schedule: Q01DX Z (ip), vehicle: carboxymethylcellulose (CMC)): 150 % of control; T/C (dose: 300.0 mg/kg/injection, schedule: Q01DX Z (ip), vehicle: carboxymethylcellulose (CMC)): 122 % of control

What does the source list for `CS(=O)(=O)OCCCl`?
T/C (dose: 75.0 mg/kg/injection, schedule: Q01DX Z (ip), vehicle: saline): 115 % of control; T/C (dose: 100.0 mg/kg/injection, schedule: Q01DX Z (ip), vehicle: saline): 108 % of control; T/C (dose: 150.0 mg/kg/injection, schedule: Q01DX Z (ip), vehicle: saline): 116 % of control

Which results are given for `c1nc(Sc2ncnc3nc[nH]c23)c2[nH]cnc2n1`?
T/C (dose: 37.0 mg/kg/injection, schedule: Q01DX009 (ip), vehicle: other): 100 % of control; T/C (dose: 75.0 mg/kg/injection, schedule: Q01DX009 (ip), vehicle: other): 107 % of control; T/C (dose: 150.0 mg/kg/injection, schedule: Q01DX009 (ip), vehicle: other): 95 % of control; T/C (dose: 300.0 mg/kg/injection, schedule: Q01DX009 (ip), vehicle: other): 91 % of control

Which results are given for `O=CN(O)CC(=O)O`?
T/C (dose: 62.0 mg/kg/injection, schedule: Q01DX Z (ip), vehicle: saline): 100 % of control; T/C (dose: 125.0 mg/kg/injection, schedule: Q01DX Z (ip), vehicle: saline): 112 % of control; T/C (dose: 250.0 mg/kg/injection, schedule: Q01DX Z (ip), vehicle: saline): 107 % of control; T/C (dose: 500.0 mg/kg/injection, schedule: Q01DX Z (ip), vehicle: saline): 105 % of control
